These results are taken from US7629346B2, “Pyrazinecarboxamide derivatives as CB1 antagonists” (Hoffmann-La Roche Inc., priority 2006, dated 2009).

Experiment [1] addresses T1, human cannabis CB1 receptor (Homo sapiens, UniProt P21554).
T1 construct: expressed in transfected cells; host or cells: human embryonic kidney (HEK) cells, Semliki Forest Virus system, membrane preparation
Put plainly: Affinity for cannabinoid CB1 receptors, [3H]-CP-55,940 radioligand binding on HEK cell membranes. As for the experimental part:
The affinity of the compounds of the invention for cannabinoid CB1 receptors was determined using membrane preparations of human embryonic kidney (HEK) cells in which the human cannabis CB1 receptor is transiently transfected using the Semliki Forest Virus system in conjunction with [3H]-CP-55,940 as radioligand. After incubation of a freshly prepared cell membrane preparation with the [3H]-ligand, with or without addition of compounds of the invention, separation of bound and free ligand was performed by filtration over glassfiber filters. Radioactivity on the filter was measured by liquid scintillation counting.
The compounds of formula (I) show an excellent affinity for the CB1 receptor, determined with the experimental conditions described in Devane et. al. Mol. Pharmacol. 34 (1988) 605-613.

The conditions of experiment [2]: phase III trial STRATUS-US; cited from earlier work.
For experiment [3] the following is noted: several phase III studies; cited from earlier work.
For experiment [4] the following is noted: 10 and 20 mg daily; cited from earlier work.
The conditions of experiment [5]: wild-type versus CB1 knockout mice; cited from earlier work.
[6] abbreviates: [3H]-CP-55,940 as radioligand, membranes of HEK cells transfected with human CB1 receptor, read-out: Ki.

Where two headings read alike, the source gives them in different places.

T1 sequence (P21554 whole entry): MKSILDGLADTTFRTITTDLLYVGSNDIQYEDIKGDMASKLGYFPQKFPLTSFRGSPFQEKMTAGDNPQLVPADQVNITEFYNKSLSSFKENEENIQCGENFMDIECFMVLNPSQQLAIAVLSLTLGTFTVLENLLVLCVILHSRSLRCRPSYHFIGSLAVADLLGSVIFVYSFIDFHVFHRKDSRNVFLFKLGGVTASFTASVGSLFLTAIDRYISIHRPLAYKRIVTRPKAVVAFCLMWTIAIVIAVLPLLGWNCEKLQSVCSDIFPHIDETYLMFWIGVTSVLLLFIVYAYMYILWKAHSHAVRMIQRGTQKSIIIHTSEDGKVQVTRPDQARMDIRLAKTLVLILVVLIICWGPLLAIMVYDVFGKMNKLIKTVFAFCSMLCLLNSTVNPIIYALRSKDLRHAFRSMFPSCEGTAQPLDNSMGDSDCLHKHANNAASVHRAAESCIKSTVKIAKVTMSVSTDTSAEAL

As a reminder, the Ki is a dissociation constant, usually derived from enzyme kinetics or from competition with a known ligand. In experiment [1], `COCCOc1ncc(C(=O)NC[C@](C)(O)C2CC2)nc1-c1ccc(Cl)cc1` [Example 27, 6-(4-Chloro-phenyl)-5-(2-methoxy-ethoxy)-pyrazine-2-carboxylic acid ((R)-2-cyclopropyl-2-hydroxy-propyl)-amide] had a Ki of 47.5 nM.

Take `C[C@](O)(CNC(=O)c1cnc(OCc2ncccn2)c(-c2ccc(F)cc2)n1)C1CC1` [Example 69, 6-(4-Fluoro-phenyl)-5-(pyrimidin-2-ylmethoxy)-pyrazine-2-carboxylic acid ((R)-2-cyclopropyl-2-hydroxy-propyl)-amide]: the inhibition constant Ki in experiment [1] (setting [6]) was 12.2 nM.

Take `CN(c1ncc(C(=O)N[C@@H]2CCCC[C@H]2O)nc1-c1ccc(OC(F)(F)F)cc1)C1CC1` [Example 21, 5-(Cyclopropyl-methyl-amino)-6-(4-trifluoromethoxy-phenyl)-pyrazine-2-carboxylic acid ((1R,2R)-2-hydroxy-cyclohexyl)-amide]: the Ki in experiment [1] (setting [6]) came out at 35.4 nM.

Consider `Cc1c(C(=O)NN2CCCCC2)nn(-c2ccc(Cl)cc2Cl)c1-c1ccc(Cl)cc1` [SR 141716, Rimonabant], for which the “efficacy for smoking cessation” value in experiment [2] is given as “has shown efficacy”. In addition, in experiment [3], the “body weight, waist circumference and metabolic parameters (plasma HDL, triglycerides and insulin sensitivity)” value was “reduced body weight, waist circumference and improved metabolic parameters”. Besides, in experiment [4], the “body weight compared to placebo” value is on record as “significantly reduced body weight”. Also, the food intake entry in experiment [5] was “reduces food intake in wild-type but not knockout mice”.
